Results from article PMC12186843, “Targeting GABAergic Hypofunction Associated with Schizophrenia: Identification of α1β2γ2GABA‑A Receptor Ligands with Neuroprotective and Antipsychotic Properties” (ACS Chemical Neuroscience, 2025).

Key:
Wistar rats [1] = experiment: Prepulse inhibition (PPI) test with MK-801; assay type: in vivo, rat; conditions: i.p.
Protocol: All behavioral procedures were conducted using drug-naive male Wistar rats (Charles River, Sulzfeld, Germany), (n = 8/per group). Animals were housed in groups of four per standard plastic cage under controlled environmental conditions (temperature: 22 ± 1 °C, humidity: 60%, and a 12:12 light-dark cycle with lights on at 07:00 a.m.). Animals were obtained from the breeder 2 weeks prior to the initiation of behavioral procedures, during which time they were weighed and handled multiple times. Animals had ad libitum access to tap water and standard laboratory chow (Labofeed H, WPIK, Kcynia, Poland). […]
The PPI apparatus consisted of eight startle chambers (SR-LAB, San Diego Instruments, San Diego, CA, USA). […] Startle responses, reflecting the movement of animals within the cylinder following an acoustic stimulus, were measured with a piezoelectric transducer positioned beneath the frame. […]
The preliminary stimuli were followed by 60 trials of varying intensities presented in random order, with a mean intertrial interval (ITI) of 22.5 s. […] Startle amplitudes were calculated as the average response across 10 trials for each stimulation type. […] Startle responses (in manufacturer’s arbitrary units), and magnitudes of PPI (%) were analyzed with the aid of a one-way analysis of variance (ANOVA). […]

MDR1-MDCKII cell line = experiment: A–B and B–A permeability assay in MDR1-MDCKII cell line
Protocol: The A–B and B–A permeability assay using the MDR1-MDCKII cell line was conducted at Eurofins Discovery according to a well-established protocol.

Wistar rats [2] = experiment: MK-801-induced hyperlocomotion; assay type: in vivo, rat; conditions: i.p., 1, 3 and 10 mg/kg, significant effect at 10 mg/kg, MK-801 0.3 mg/kg i.p.
Protocol: 8 (A). […] The dose of 0 mg/kg corresponds to subjects treated with vehicle and amphetamine (1.0 mg/kg, i.p.). Data are presented as the mean ± SEM (n = 8). One-way ANOVA F(3,28)=0.2, p > 0.05, one-way ANOVA F(3,28)=[…], p < 0.01**. (B). […] The dose of 0 mg/kg corresponds to subjects treated with vehicle and MK-801 (0.3 mg/kg, i.p.). Data are presented as the mean ± SEM (n = 8). ** p < 0.01, Newman-Keuls test, F(3,28)=5.29, p = 0.005. (C) Effects of compound 9, administered at doses ranging from 1 to 10 mg/kg, on spontaneous locomotor activity in rats. Data are presented as the mean ± SEM (n = 8). One-way ANOVA F(3,28) = 0.3, p > 0.05, one-way ANOVA F(3,28) = 6.7, p < 0.01*.
All behavioral procedures were conducted using drug-naive male Wistar rats (Charles River, Sulzfeld, Germany), (n = 8/per group). Animals were housed in groups of four per standard plastic cage under controlled environmental conditions (temperature: 22 ± 1 °C, humidity: 60%, and a 12:12 light-dark cycle with lights on at 07:00 a.m.). […]
All procedures were performed in a sound-attenuated experimental room between 9:00 a.m. and 3:00 p.m. […] Locomotor activity was measured in black octagonal cages (80 cm diameter, 30 cm height) amid dim lighting and constant white noise (65 dB). […] Locomotor activity (cm/30 min) was recorded and analyzed using an automated motion monitoring system (Videomot, TSE, Bad Homburg, Germany). […]

Q: For `Cc1ccc2nc(-c3ccc(F)cc3)c(CC(=O)N3CCCC3)n2c1.O=C(O)C(O)C(O)C(=O)O` [Compound 17, 2-(4-Fluorophenyl)-6-methyl-3-(2-oxo-2-(pyrrolidin-1-yl)-ethyl)imidazo[1,2-a]pyridin-1-ium 3-carboxy-2,3-dihydroxy-propanoate], which “Effect on basic startle response” value (Wistar rats [1]; F(3,28) = 1.66, p = 0.2) is on record?
A: did not affect significantly basic startle response

Q: And the “Effect on MK-801-induced PPI deficits” value (Wistar rats [1]; prestimulus of 84 and 90 dB, p = 0.82 and p = 0.72)?
A: the effect did not reach statistical significance

Q: And the “Substrate for P-glycoprotein (P-gp) efflux” value (MDR1-MDCKII cell line; MDCK-MDR1 permeability assay)?
A: not to be a substrate

Q: And the “Permeability A–B” value (MDR1-MDCKII cell line; pH 7.4/7.4, 6 and 17 at 10 μM)?
A: 55.6 10^–6 cm/s

Q: What about the “Permeability B–A” value (MDR1-MDCKII cell line; pH 7.4/7.4, 6 and 17 at 10 μM) of the same molecule?
A: 29.7 10^–6 cm/s

Q: What about the “Effect on MK-801-induced hyperlocomotion” value (Wistar rats [2]) of the same molecule?
A: reduced hyperlocomotion
